# Key:
# Assay type in all cases: in vivo
# [1] = test system: murine ischemia/reperfusion model of myocardial infarction; assay: Mouse ischemia/reperfusion model: infarct size after remote topical TRP agonist
# Protocol: A previously described mouse model of ischemia and reperfusion (I/R) injury in vivo was used (Ren et al. (2004) J. Surg Res. 121(1):120-129; Fan et al (2005) Circulation 111(14):1792-1799; Zhou et al (2007) Cardiovascular Research 75(3) 487-497; and Diwan et al (2007) J. Clinical Investigation 117(10):2825-2833, herein incorporated by reference in their entirety). Mice were anesthetized with sodium pentobarbital (90 mg/kg ip), intubated with PE 90 tubing and ventilated using a mouse miniventilator (Harvard Apparatus, Holliston, Mass.). All mice were continuously monitored by electrocardiography ([…] Sinus Rhythm Analyzer, Micro-Med Inc), and mice without evidence of ischemia and timely reperfusion were excluded from the studies. A lateral thoracotomy (1.5 cm incision between the second and third ribs was performed to provide exposure of the left anterior descending coronary artery (LAD). Vascular bundles in the vicinity were coagulated using a microcoagulator (Medical Industries Inc, St. Petersburg Fla.). An 8-0 nylon suture was placed around the LAD 2-3 mm from the tip of the left auricle and a piece of soft silicon tubing (0.64 mm ID, 1.19 mm OD) was placed over the artery. Coronary occlusion was achieved by tightening and tying the suture. Coronary occlusion was for 45 minutes, unless indicated otherwise. At the end of the occlusion, the suture was untied and left in place. Ischemia was confirmed by visual observation of cyanosis and by continuous ECG monitoring (QRS complex widening, T wave inversion and ST segment changes); reperfusion was confirmed by reversal of these effects. Results of one such experiment are presented in FIG. 1, panel A. Mice were euthanized either 4 or 24 hours after reperfusion and infarct size determination and imaging were performed by previously described methods (Ren et al. (2004) J. Surg Res. 121(1):120-129 and Guo et al (1998) Am J. Physiology 275 (4 Pt 2):[…]-1387, herein incorporated by reference in their entirety). Mice were anesthetized with pentobarbital sodium (35 mg/kg iv) and euthanized with an intravenous bolus of KCl. The heart was excised and perfused with Krebs-Henseleit solution through an aortic cannula (22 or 23-gauge needle) using a Langerdorff apparatus. To delineate infarcted from viable myocardium, the heart was then perfused with a 1% solution of 2,3,5-triphenyltetrazolium chloride (TTC) in phosphate buffer (pH 7.4, 37° C.) at a pressure of […] (approx. 3 ml over 3 min). […] Infarct size was determined by the method of Fishbein et al (1981) Am Heart J 101(5):593-600, herein incorporated by reference in its entirety. […] Infarct size was determined as described elsewhere herein. […]
# [2] = test system: murine ischemia/reperfusion model of myocardial infarction; assay: Blockade of the cardioprotection by remote electrical stimulation in mouse ischemia/reperfusion model
# Protocol: A previously described mouse model of ischemia and reperfusion (I/R) injury in vivo was used (Ren et al. (2004) J. Surg Res. 121(1):120-129; Fan et al (2005) Circulation 111(14):1792-1799; Zhou et al (2007) Cardiovascular Research 75(3) 487-497; and Diwan et al (2007) J. Clinical Investigation 117(10):2825-2833, herein incorporated by reference in their entirety). Mice were anesthetized with sodium pentobarbital (90 mg/kg ip), intubated with PE 90 tubing and ventilated using a mouse miniventilator (Harvard Apparatus, Holliston, Mass.). All mice were continuously monitored by electrocardiography (ECG) (DigiMed Sinus Rhythm Analyzer, Micro-Med Inc), and mice without evidence of ischemia and timely reperfusion were excluded from the studies.
# A lateral thoracotomy (1.5 cm incision between the second and third ribs was performed to provide exposure of the left anterior descending coronary artery (LAD). Vascular bundles in the vicinity were coagulated using a microcoagulator (Medical Industries Inc, St. Petersburg Fla.). An 8-0 nylon suture was placed around the LAD 2-3 mm from the tip of the left auricle and a piece of soft silicon tubing (0.64 mm ID, 1.19 mm OD) was placed over the artery. Coronary occlusion was achieved by tightening and tying the suture. Coronary occlusion was for 45 minutes, unless indicated otherwise. At the end of the occlusion, the suture was untied and left in place. Ischemia was confirmed by visual observation of cyanosis and by continuous ECG monitoring (QRS complex widening, T wave inversion and ST segment changes); reperfusion was confirmed by reversal of these effects.
# Mice were euthanized either 4 or 24 hours after reperfusion and infarct size determination and imaging were performed by previously described methods (Ren et al. (2004) J. Surg Res. 121(1):120-129 and Guo et al (1998) Am J. Physiology 275 (4 Pt 2):H1375-1387, herein incorporated by reference in their entirety). Mice were anesthetized with pentobarbital sodium (35 mg/kg iv) and euthanized with an intravenous bolus of KCl. The heart was excised and perfused with Krebs-Henseleit solution through an aortic cannula (22 or 23-gauge needle) using a Langerdorff apparatus. To delineate infarcted from viable myocardium, the heart was then perfused with a 1% solution of 2,3,5-triphenyltetrazolium chloride (TTC) in phosphate buffer (pH 7.4, 37° C.) at a pressure of […] (approx. 3 ml over 3 min). To delineate the occluded-reperfused coronary vascular bed, the coronary artery was then tied at the site of the previous occlusion and the aortic root was perfused with a 5% solution of phthalo blue dye in normal saline. […] Infarct size was determined by the method of Fishbein et al (1981) Am Heart J 101(5):593-600, herein incorporated by reference in its entirety. […]
# [3] = target: T1, TRPV1 (Mus musculus, UniProt Q704Y3); assay: Topical capsaicin before ischemia/reperfusion in wild-type vs TRPV1 knock-out mice; conditions: capsaicin topically administered to the abdomen prior to ischemia and reperfusion; FIG. 2E
# T1 construct: data from wild-type mice topically treated with capsaicin administered to the abdomen prior to surgical induction of ischemia and reperfusion; from tissue; host or cells: Living wild-type mouse; abdominal skin nociceptors (C-fibers), in vivo
# T1 sequence (Q704Y3 whole entry, the tested form may be a part): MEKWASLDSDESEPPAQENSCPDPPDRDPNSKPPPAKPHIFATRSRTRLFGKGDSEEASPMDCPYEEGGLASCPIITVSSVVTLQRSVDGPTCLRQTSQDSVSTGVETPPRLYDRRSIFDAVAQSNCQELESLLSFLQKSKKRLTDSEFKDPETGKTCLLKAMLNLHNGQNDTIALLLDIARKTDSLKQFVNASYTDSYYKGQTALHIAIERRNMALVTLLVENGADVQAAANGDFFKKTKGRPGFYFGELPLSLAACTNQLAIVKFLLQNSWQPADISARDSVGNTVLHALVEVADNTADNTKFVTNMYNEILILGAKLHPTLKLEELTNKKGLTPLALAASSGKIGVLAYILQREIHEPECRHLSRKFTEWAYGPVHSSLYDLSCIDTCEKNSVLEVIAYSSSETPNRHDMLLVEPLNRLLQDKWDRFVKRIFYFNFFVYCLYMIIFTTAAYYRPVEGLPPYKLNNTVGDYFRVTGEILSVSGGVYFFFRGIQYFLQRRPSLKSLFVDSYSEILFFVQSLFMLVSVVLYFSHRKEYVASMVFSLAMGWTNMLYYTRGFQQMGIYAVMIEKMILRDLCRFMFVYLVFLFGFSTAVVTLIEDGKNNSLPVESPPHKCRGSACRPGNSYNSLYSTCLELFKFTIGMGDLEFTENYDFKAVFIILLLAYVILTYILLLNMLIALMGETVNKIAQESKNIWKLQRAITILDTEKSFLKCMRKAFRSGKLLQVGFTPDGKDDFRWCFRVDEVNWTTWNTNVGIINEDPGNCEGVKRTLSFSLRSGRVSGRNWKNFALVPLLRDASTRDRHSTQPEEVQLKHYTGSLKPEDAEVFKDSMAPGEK
# From the text: FIG. 2, panel E presents a graph of results obtained from wild-type (WT) and TRPV1 knock-out (TRPVKO) mice using topical capsaicin as the cardioprotective stimulus. Infarct size as a percent of risk region is presented on the y-axis. The first bar presents data from wild-type mice topically treated with capsaicin administered to the abdomen prior to surgical induction of ischemia and reperfusion (WT, Capsaicin, hatched bar). The second bar presents data from TRPV1 knockout mice topically treated with capsaicin administered to the abdomen prior to surgical induction of ischemia and reperfusion (TRPVKO, Capsaicin, dotted bar). The third bar presents data from TRPV1 knockout mice subjected to sham treatment prior to surgical induction of ischemia and reperfusion (TRPVKO No capsaicin, empty bar).
# Mice were anesthetized with sodium pentobarbital (90 mg/kg ip), intubated with PE 90 tubing and ventilated using a mouse miniventilator (Harvard Apparatus, Holliston, Mass.). All mice were continuously monitored by electrocardiography (ECG) (DigiMed Sinus Rhythm Analyzer, Micro-Med Inc), and mice without evidence of ischemia and timely reperfusion were excluded from the studies. […]
structure (smiles),measurement,setting,value
CCCN(CCC)S(=O)(=O)c1ccc(C(=O)O)cc1 [probenecid],infarct size as a percent of risk region,"[1]; topical probenecid application vs sham/control animals, p<0.07, FIG. 11",significantly reduced
CCN(CC)CC(=O)Nc1c(C)cccc1C [lidocaine],infarct size as a percent of risk region,"[2]; 2% lidocaine prior to electrical stimulation (ES) and ischemia, vs vehicle ES, FIG. 2A",significantly higher percentage of risk region than infarction size in vehicle and ES treated mice
same,cardioprotective effect of the remote electrical stimulation,"[2]; 10 μl lidocaine (2%) s.c. pre-treatment, 45 min occlusion",no significant cardioprotection relative to controls
CC(C)NCC(O)COc1cccc2ccccc12 (stereo not drawn) [propanolol],infarct size as a percentage of risk region,"[2]; propanolol plus ES vs vehicle plus ES, FIG. 3B",significantly higher than infarct size in control mice treated only with the vehicle and electrically stimulated
COc1ccc2c(c[n+](C)c3c4cc5c(cc4ccc23)OCO5)c1OC [chelerythrine],inhibition of ischemia-related tissue damage (infarct size as a percentage of risk region),"[2]; chelerythrine plus ES vs vehicle plus ES, FIG. 3C",reduced inhibition of ischemia-related tissue damage
"COc1cc(CNC(=O)CCCC/C=C/C(C)C)ccc1O [capsaicin, (6E)-N-[(4-Hydroxy-3-methoxyphenyl)methyl]-8-methyl-6-nonenamide]",reduction of infarct size (infarct size as a percent of the risk region),"[1]; remote pre-conditioning, stimulus given 15 minutes prior to the ischemia, abdominal topical, vs sham, n=6, P<0.01",85%
same,infarct size as a percent of the risk region,"[1]; remote pre-treatment prior to ischemia/reperfusion, vs sham, FIG. 1C",substantial reduction in infarct size
same,infarct size as a percent of risk area,"[1]; topical application during ischemia (conditioning) or after reperfusion (postCON), vs sham, p<0.01, FIG. 10",significantly reduces infarct size
same,"infarct size as a percent of risk region, WT vs TRPVKO",[3],reduced myocardial infarct size as compared to TRPVKO mice

# — patent US9216171B2, “Methods of preventing ischemic injury using peripheral nociceptive stimulation” (University of Cincinnati, priority 2009, dated 2015)
